Common to all, as to assay: relative viability (nuclei count vs DMSO), 5 days (fraction); higher = more cells survive
Compound in the test “BGJ398 + Lapatinib”: CCN1CCN(c2ccc(Nc3cc(N(C)C(=O)Nc4c(Cl)c(OC)cc(OC)c4Cl)ncn3)cc2)CC1 [BGJ398] + CS(=O)(=O)CCNCc1ccc(-c2ccc3ncnc(Nc4ccc(OCc5cccc(F)c5)c(Cl)c4)c3c2)o1 [Lapatinib] (partner 2 µM)
A digest of the protocol: (§1)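 Relative viability equals treated-well nuclei counts divided by vehicle-well nuclei counts. Counts came from 4× images of lung cancer cell lines grown in 1536-well plates for 5 days after pin-tool dosing on the day after seeding. Dosing used one drug alone or a fixed anchor-drug dose plus five library-drug doses (not always all listed) in √10 steps, and values are medians of duplicate plates.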

Compound in test [1]: C1=CC2=NC=CN=C2C=C1/C=C/3\C(=O)NC(=O)S3 + Cc1nc(Nc2ncc(C(=O)Nc3c(C)cccc3Cl)s2)cc(N2CCN(CCO)CC2)n1 [Dasatinib] (partner 0.075 µM)
A digest of the protocol:
as §1

Compound in test [2]: C1=CC2=NC=CN=C2C=C1/C=C/3\C(=O)NC(=O)S3 + C[C@]1(O)C[C@@H](c2nc(-c3ccc4ccc(-c5ccccc5)nc4c3)c3c(N)nccn32)C1 [Linsitinib] (partner 1 µM)
An outline of the steps:
as §1

Compound in test [3]: C1=CC2=NC=CN=C2C=C1/C=C/3\C(=O)NC(=O)S3 + Nc1nc2[nH]cc(CCc3ccc(C(=O)N[C@@H](CCC(=O)O)C(=O)O)cc3)c2c(=O)[nH]1 [Pemetrexed] (partner 0.2 µM)
A digest of the protocol: as §1

For HARA, the relative viability in the test with BGJ398 + Lapatinib (first compound 0.01 µM) came to 0.67; with BGJ398 + Lapatinib (first compound 0.03162 µM), 0.531; with BGJ398 + Lapatinib (first compound 0.1 µM), 0.472; in the test with BGJ398 + Lapatinib (first compound 0.3162 µM), 0.362; with BGJ398 + Lapatinib (first compound 1 µM), 0.217; in test [1] (first compound 0.02 µM), 0.278. Moreover, the relative viability in test [1] (first compound 0.06325 µM) worked out at 0.315; in test [1] (first compound 0.2 µM), 0.3; in test [1] (first compound 0.6325 µM), 0.243; in test [1] (first compound 2 µM) it was 0.194; in test [2] (first compound 0.02 µM) it was 0.96; in test [2] (first compound 0.06325 µM) it was 0.829. For the same cell line, the relative viability in test [2] (first compound 0.2 µM) amounted to 1.08; in test [2] (first compound 0.6325 µM), 0.942; in test [2] (first compound 2 µM) it was 0.975; in test [3] (first compound 0.02 µM) it was 0.226; in test [3] (first compound 0.06325 µM), 0.233; in test [3] (first compound 0.2 µM) it was 0.256. Moreover, the figures for the relative viability in test [3] (first compound 0.6325 µM) and in test [3] (first compound 2 µM) were 0.231 and 0.249, respectively.

Regarding NCI-H596, the relative viability with BGJ398 + Lapatinib (first compound 0.01 µM) came to 1.16; in the test with BGJ398 + Lapatinib (first compound 0.03162 µM) it was 0.937; with BGJ398 + Lapatinib (first compound 0.1 µM), 0.974; with BGJ398 + Lapatinib (first compound 0.3162 µM), 0.824; with BGJ398 + Lapatinib (first compound 1 µM) it was 0.496; in test [1] (first compound 0.02 µM), 0.67. For the same cell line, the relative viability in test [1] (first compound 0.06325 µM) is 0.588; in test [1] (first compound 0.2 µM), 0.62; in test [1] (first compound 0.6325 µM) it was 0.528; in test [1] (first compound 2 µM), 0.427; in test [2] (first compound 0.02 µM) it was 1.01; in test [2] (first compound 0.06325 µM), 0.994. Further, the relative viability is 1.11 in test [2] (first compound 0.2 µM); 0.975 in test [2] (first compound 0.6325 µM); 1.07 in test [2] (first compound 2 µM); 0.498 in test [3] (first compound 0.02 µM); 0.541 in test [3] (first compound 0.06325 µM); 0.543 in test [3] (first compound 0.2 µM). Besides, the relative viability was determined as 0.533 in test [3] (first compound 0.6325 µM) and 0.483 in test [3] (first compound 2 µM).

Turning to NCI-H1563, the relative viability was determined as 0.926 with BGJ398 + Lapatinib (first compound 0.01 µM); 1.01 with BGJ398 + Lapatinib (first compound 0.03162 µM); 0.761 in the test with BGJ398 + Lapatinib (first compound 0.1 µM); 0.721 with BGJ398 + Lapatinib (first compound 0.3162 µM); 0.669 with BGJ398 + Lapatinib (first compound 1 µM); 0.477 in test [1] (first compound 0.02 µM). The relative viability in test [1] (first compound 0.06325 µM) was determined as 0.435; in test [1] (first compound 0.2 µM), 0.523; in test [1] (first compound 0.6325 µM), 0.486; in test [1] (first compound 2 µM), 0.316; in test [2] (first compound 0.02 µM) it was 1.19; in test [2] (first compound 0.06325 µM) it was 1.23. Further, the relative viability turned out to be 1.12 in test [2] (first compound 0.2 µM); 1.1 in test [2] (first compound 0.6325 µM); 1.3 in test [2] (first compound 2 µM); 0.753 in test [3] (first compound 0.02 µM); 0.684 in test [3] (first compound 0.06325 µM); 0.916 in test [3] (first compound 0.2 µM). Also, the relative viability came to 0.781 in test [3] (first compound 0.6325 µM) and 0.749 in test [3] (first compound 2 µM).

In the case of NCI-H23, the relative viability is 1.02 in the test with BGJ398 + Lapatinib (first compound 0.01 µM); 1.06 in the test with BGJ398 + Lapatinib (first compound 0.03162 µM); 1.3 with BGJ398 + Lapatinib (first compound 0.1 µM); 0.99 in the test with BGJ398 + Lapatinib (first compound 0.3162 µM); 1.07 in the test with BGJ398 + Lapatinib (first compound 1 µM); 0.703 in test [1] (first compound 0.02 µM). Also, the relative viability came to 0.976 in test [1] (first compound 0.06325 µM); 0.715 in test [1] (first compound 0.2 µM); 0.754 in test [1] (first compound 0.6325 µM); 0.29 in test [1] (first compound 2 µM); 0.575 in test [2] (first compound 0.02 µM); 0.649 in test [2] (first compound 0.06325 µM). The relative viability was 0.717 in test [2] (first compound 0.2 µM); 0.588 in test [2] (first compound 0.6325 µM); 0.603 in test [2] (first compound 2 µM); 0.605 in test [3] (first compound 0.02 µM); 0.79 in test [3] (first compound 0.06325 µM); 0.636 in test [3] (first compound 0.2 µM). The relative viability turned out to be 0.6 in test [3] (first compound 0.6325 µM) and 0.578 in test [3] (first compound 2 µM).

As for LCLC-97TM1, the relative viability came out at 0.525 with BGJ398 + Lapatinib (first compound 0.01 µM); 0.745 with BGJ398 + Lapatinib (first compound 0.03162 µM); 0.901 with BGJ398 + Lapatinib (first compound 0.1 µM); 0.979 with BGJ398 + Lapatinib (first compound 0.3162 µM); 0.868 with BGJ398 + Lapatinib (first compound 1 µM); 0.974 in test [1] (first compound 0.02 µM). Besides, the relative viability in test [1] (first compound 0.06325 µM) amounted to 0.762; in test [1] (first compound 0.2 µM), 0.775; in test [1] (first compound 0.6325 µM), 0.8; in test [1] (first compound 2 µM), 0.306; in test [2] (first compound 0.02 µM), 0.23; in test [2] (first compound 0.06325 µM) it was 0.188. Further, the relative viability in test [2] (first compound 0.2 µM) was determined as 0.203; in test [2] (first compound 0.6325 µM), 0.162; in test [2] (first compound 2 µM), 0.145; in test [3] (first compound 0.02 µM), 0.138; in test [3] (first compound 0.06325 µM) it was 0.199; in test [3] (first compound 0.2 µM), 0.187. For the same cell line, the relative viability in test [3] (first compound 0.6325 µM) and in test [3] (first compound 2 µM) was 0.152 in each case.

Regarding EPLC-272H, the relative viability was 1.13 with BGJ398 + Lapatinib (first compound 0.01 µM); 0.814 in the test with BGJ398 + Lapatinib (first compound 0.03162 µM); 0.833 with BGJ398 + Lapatinib (first compound 0.1 µM); 0.748 in the test with BGJ398 + Lapatinib (first compound 0.3162 µM); 0.497 with BGJ398 + Lapatinib (first compound 1 µM); 0.43 in test [1] (first compound 0.02 µM). Moreover, the relative viability in test [1] (first compound 0.06325 µM) amounted to 0.462; in test [1] (first compound 0.2 µM), 0.421; in test [1] (first compound 0.6325 µM), 0.294; in test [1] (first compound 2 µM), 0.153; in test [2] (first compound 0.02 µM), 1.09; in test [2] (first compound 0.06325 µM) it was 1.25. Further, the relative viability in test [2] (first compound 0.2 µM) is 1.25; in test [2] (first compound 0.6325 µM) it was 1.1; in test [2] (first compound 2 µM), 1.26; in test [3] (first compound 0.02 µM) it was 0.351; in test [3] (first compound 0.06325 µM), 0.266; in test [3] (first compound 0.2 µM) it was 0.43. Also, the relative viability in test [3] (first compound 0.6325 µM) was found to be 0.353; in test [3] (first compound 2 µM), 0.318.
